What was measured:
[1] = tested on: model of sarcopenia caused by aging; experiment: Aging animal model, 24-month-old mice, oxiracetam per concentration (Experimental Example 3); format: in vivo, C57BL/6J mice
Text: For an experimental group in the present invention, oxiracetam having a structure of Formula 1 was purchased from Tokyo Chemical Industry (Japan; Product No. 00398, CAS RN:62613-82-5, purity: 96%) and used.
As a model of sarcopenia caused by aging, 24-month-old male C57BL/6J mice were used. Until the day of the experiment, general feed (EEGJ30060: Cargill Agri Purina, Seongnam, Korea) and water were sufficiently supplied to the experimental animals, and the animals were acclimated for 1 week under an environment of a temperature of 23±2° C., a humidity of 55±10%, and a light-dark cycle of 12 hours-12 hours and used in the experiment.
The animals were randomly divided into groups of 10 animals, such as a control (vehicle, n=10), and 42, 83, 167, 333 mg/kg/day oxiracetam-administered groups (n=10 per concentration). To the oxiracetam-administered group, oxiracetam was orally administered using a Zonde needle for 93 days once a day at a dose of 42, 83, 167, or 333 mg/kg/day. During the same period, no drug was administered to the control group, and 100 μL of normal saline was orally administered at one time.
To measure grip strength, a grip strength test was performed. The maximum force presented when the forelimbs of an animal model of each group could no longer hold the rod by pulling the tail horizontally while holding the tail of the animal model and holding the rod of a device with both front paws was considered to be grip strength (N). The grip strength was measured once every 3 days, and after repeating five measurements at one time, the average value was shown. Grip strength adaptation training was performed at least three times before drug administration.
The lean body mass for the gastrocnemius muscle (GS) and tibialis anterior (TA) for each group was measured every 7 days. Specifically, animal models of each group were anesthetized using 3% isoflurane, fixed to a photographing bed, and then photographed. The respiration rates and temperatures of the animal models during photographing were measured using an animal monitoring system (SA Instruments, USA).
The whole body of the animal model was photographed through dual energy X-ray absorptiometry (DEXA) using iNSiGHT VET DXA (Osteosys, KR), and the lean body mass of each of the gastrocnemius muscle (GS) and the tibialis anterior (TA) was measured and calculated from the two-dimensional images of the gastrocnemius muscle (GS) and the tibialis anterior (TA) by a program using the region of interest (ROI).
Statistical processing was performed using GraphPad Prism (GraphPad Software Inc., San Diego, CA, USA). The results of each repeated experiment were expressed as mean±standard error of mean, and analyzed using the analysis of variance (Tukey's test), and statistical significance was acknowledged when the P-value was 0.05 or less.

DMD animal model = experiment: Duchenne muscular dystrophy animal model (Experimental Example 6); format: in vivo, mice (C57BL/10 ScSn-Dmdmdx/J); details: mdx mice, oxiracetam 30 mg/kg oral daily 35 days
Experimental: As experimental animals, 23-week-old male mice (C57BL/10 ScSn-Dmdmdx/J) were purchased from the Jackson Laboratory (USA) to conduct experiments. All animals were maintained under conditions of a temperature of 23±2° C. and a relative humidity of 55±10%. Before the initiation of the experiment, a total of 20 mice were randomly divided into groups of 10 animals. After adaptation for 1 week, 30 mg/kg of oxiracetam of Example 1 was orally administered daily for 35 days (drug-administered group, oxiracetam). Here, for the control (vehicle), instead of a sample, normal saline was orally administered.
For statistical analysis of the experiment, significant differences in mean values between groups were confirmed using a paired t-test, and p<0.05 is denoted as *, p<0.01 is denoted as **, p<0.001 is denoted as ***, and no significant difference is denoted as N.S. An error bar represents S.E.M.
Total lean body mass, body fat content (fat, %), the lean body mass of the gastrocnemius muscle (GS), and the lean body mass of the tibialis anterior (TA) were analyzed by dual energy X-ray absorptiometry (DEXA) every 7 days from the first day (day 0) of oral administration. Specifically, animal models of each group were anesthetized using 3% isoflurane, fixed to a photographing bed and then photographed. During photographing, the respiratory rates and body temperatures of the animal models were measured with an animal monitoring system (SA Instruments, USA).
The whole body of the animal model was photographed through dual energy X-ray absorptiometry (DEXA) using iNSiGHT VET DXA (Osteosys, KR), and the total lean body mass and the body fat content (fat, %) were analyzed. In addition, from the photographed images, the two-dimensional images of the gastrocnemius muscle (GS) and the tibialis anterior (TA) were assigned to the region of interest (ROI) using a program, and the lean body mass of each of the gastrocnemius muscle (GS) and the tibialis anterior (TA) was measured and calculated. Since the DEXA image can be used to measure and analyze the lean body mass, fat, and bone density of a mouse, it is possible to measure and calculate not only detailed lean body mass but also total lean body mass and body fat content (fat, %).
Grip strength was measured every 2 days from the first day (day 0) of oral administration. The measurement of the grip strength was performed using a grip strength meter for mice (BIOSEB), a mouse was placed on a wire mesh attached to a gauge capable of monitoring the strength, and the tail of the mouse was pulled downward to measure a force of grabbing the wire mesh. The average value was recorded by repeating measurement five consecutive times.
Body weights were measured every day from the first day (day 0) of oral administration.

[2] = Oxi 42, 83, 167 and 333 mg/kg/day, DEXA every 7 days, compared to control
[3] = Oxi 333 group (333 mg/kg/day), among dose groups
[4] = day 35, compared to control (vehicle)

## NC(=O)CN1CC(O)CC1=O (racemic) [oxiracetam, (RS)-2-(4-hydroxy-2-oxopyrrolidin-1-yl)acetamide]
[1]; 42-333 mg/kg/day oral 93 days
  dose dependence of the effect on grip strength: increases in a concentration-dependent manner
[1]; Oxi 42, 83, 167 and 333 mg/kg/day oral 93 days, versus control (vehicle)
  change in grip strength (decrease in grip strength): significantly inhibited and rather increased
[1]; [2]
  lean body mass of the gastrocnemius muscle (GS): rather significantly increased
  lean body mass of the tibialis anterior (TA): rather significantly increased
[1]; [3]
  lean body mass of the gastrocnemius muscle (GS): greatest increase
  lean body mass of the tibialis anterior (TA): greatest increase
DMD animal model
  change in body weight: does not exhibit a significant effect
  change in grip strength: significantly increased
  pseudohypertrophy (characteristic symptom of DMD): reduced
DMD animal model; compared to control
  lean body mass of the gastrocnemius muscle (GS): significantly increased
  lean body mass of the tibialis anterior (TA): significantly increased
DMD animal model; [4]
  body fat mass (fat, %): significantly reduced
  total lean body mass: significantly increased
